Measured values as given in patent US10660934B2, “Neuroprotective peptide” (SENJU PHARMACEUTICAL CO., LTD., priority 2016, dated 2020).
Where no end group is shown, it is not given here.

Legend:
[1] = tested on: rat retinal ganglion cells (RGC); assay: Hypoxia-induced cell death assay in rat retinal ganglion cells (Calcein-AM/Ethidium homodimer); format: cell-based; conditions: for Rate of cell-death suppression (%): 24 hours hypoxia
Experimental: Retinal ganglion cells were isolated by a magnetic activated cell sorting method (MACS). Retinas were harvested from neonatal rats (Slc: Sprague-Dawley, 7-day old) and the tissue was dissociated using a Neural Tissue Dissociation Kit (Miltenyi Biotec, 130-094-802). Then, using a Retinal Ganglion Cell Isolation Kit (Miltenyi Biotec, 130-096-209), the endothelial cells and microglia were removed, and a positive selection for CD90.1^+ RGC was carried out by means of CD90.1MicroBeads. The test was carried out with the approval of the Animal Test Ethics Committee based on the Act on Welfare and Management of Animals (Act number 105 of Oct. 1, 1973, last revision: Act number 38 of Jun. 12, 2013), etc. 2. Cell Culture
After suspending the isolated RGC in a neurobasal medium (Gibco Corporation, 12348-017) containing a B27 supplement (Invitrogen, 0080085-SA), 1 mM of L-glutamine (Gibco, 25030), 50 ng/ml of BDNF (Peprotech, 25-02), 50 ng/ml of CNTF (Peprotech, 450-50) and 5 μm of Forskolin. (Sigma, F6886), they were seeded on a 96-well plate (Corning, 354596), ‘which’ was coated with poly-D-lysine/laminin, at a density of 5×10^3 cells/100 μl/well, and incubated at 37° C. and 5% CO2 for three days.
After having replaced the media with neurobasal media comprising a B27 supplement, 1 mM of L-glutamine […] and each peptide, a hypoxia state (O2 concentration of 0.1% or less) was induced by putting the plate in an Anaero Pack rectangular jar with Anaero Pack Kenki 5% (Mitsubishi Gas Chemical Company, Inc., A-07) with hermetically sealing, and incubating at 37° C. After incubating for 24 hours under hypoxia condition, Calcein-AM and Ethidium homodimer (Invitrogen, L3224) were added to the media. As a result of staining the cells, it was possible to distinguish between the viable cells and the dead cells. The number of viable cells and dead cells were measured using an Image Pro plus, and the rate of viability was given as “the proportion of the viable cell count relative to the total cell count.” 4. Test Results
The isolation and incubation of RGC were performed by the same methods as for Test Example 3-1, and 2.
Commercially available PRP4 (Abnova, H0011272-Q01) having the sequence of SEQ ID NO: 2, was used for Peptide 5. The evaluation of Peptide 5 was carried out by the same evaluation method as used for Test Example 3-3.

[2] = Stability in a vitreous humor solution; format: in vitro ADME, rabbit
Experimental: (Two) rabbits were euthanized by intravenous administration of 5 ml of a pentobarbital sodium solution, and then their eyeballs were removed. An incision was made in the equatorial region of each eyeball and the vitreous humor-solution was harvested from each eyeball using a syringe (18G injection needle) at the site of incision. The mixed vitreous humor solution was filtered with a cell strainer (40 μm) and the filtrate was used as the vitreous humor solution for the stability tests. 600 μl of the vitreous humor solution was mixed with 1.2 μl of a Primocin at a concentration of 50 mg/ml and the resultant solution was used as sample solution. 270 μl of the sample solution and […] in a 30 μl aqueous solution were mixed and the resultant mixture was used as the test sample. The test sample was incubated at 37° C. […] The analysis samples were stored frozen at −20° C. until it was time to take readings using them. […] Then, the concentration of Peptide 1 in each sample was analyzed using liquid chromatography. The concentrations were calculated from the area values obtained using the external standard method. […]
The residual rate was calculated using the following formula: Residual rate=(the concentration of peptide after 7 days' incubation/the concentration of peptide in the test samples immediately after they were prepared)×100 [Formula 1]

SH-SY5Y cells = assay: Hypoxia-induced cell death assay in human neuroblastoma SH-SY5Y cells (LDH); format: cell-based; conditions: 100 nM, 24 hours hypoxia (O2 0.1% or less), glucose-free DMEM, mean ± standard error (n = 3)
Experimental: SH-SY5Y cells (ATCC) were sustainably cultured in a DMEM/F12 medium (Invitrogen, 11330-032) supplemented with a 10% serum (Invitrogen, 10062-147) under the condition of 37° C. and 5% CO2.
The cells were seeded on a 96-well plate (Iwaki, 3860-096) at a density of 2×10^4 cells/100 μl/well. The following day the medium was replaced with a DMEM/F12 medium comprising a 1% serum and 10 μM of a retinoic acid (Wako, 302-79-4) and differentiated by incubation for 2 days. After replacing the medium with a glucose-free DMEM medium supplemented with 100 nM of Peptide 1, a hypoxia state (O2 concentration of 0.1% or less) was induced by putting the plate in an Anaero Pack rectangular jar with Anaero Pack Kenki 5% (Mitsubishi Gas Chemical Company, Inc., A-07) with hermetically sealing, and culturing at 37° C. Alter culturing for 24 hours in the hypoxia state, the cell-death inhibiting rate by the peptide was calculated by measuring the amount of LDH in the cells and the medium, using an LDH cytotoxicity detection kit (Takara, MK401). Moreover, 100 nM of an IGF-1 was used as a positive control in the experiment IGF-1 has a protective effect against nerve cell death (Mol. Cell Neurosci, 2011, 47 (3), 181-190). 3. Test Results

[3] = 100 nM, mean ± standard error (n = 14-19)

## HPPPPPFQ (peptide of PRP4) [Peptide 3]
[1]; [3]
  Rate of cell-death suppression (%): 27.2 ± 6.6 %

## HPPPPPFQNQQ (peptide of PRP4) [Peptide 2]
[1]; [3]
  Rate of cell-death suppression (%): 26.4 ± 4.8 %

## HPPPPPFQNQQRPP [Peptide 1, HPPPPPFQNQQRPP]
[2]; 7 days at 37° C.
  stability in a vitreous humor solution (in words): stable in a vitreous humor solution
[2]; vitreous humor solution (filtered, from rabbit eyeballs), after 7 days' incubation at 37° C. in rabbit vitreous humor solution, read-out: Residual ratio (%)
  remaining at 168 h: 98.4%

## IGF-1
SH-SY5Y cells
  Cell lethality (%): 88.1 ± 8.3 %

## QQRPP (Peptide of PRP4) [Peptide 4]
[1]; [3]
  Rate of cell-death suppression (%): 31.1 ± 7.8 %

B1: Peptide 5: Commercially available PRP4 (Abnova, H0011272-Q01) having the sequence of SEQ ID NO: 2 (protein)
chain: QSTDNDVNYEDFTFTIPDVEDSSQRPDQGPQRPPPEGLLPRPPGDSGNQDDGPQQRPPKPGGHHRHPPPPPFQNQQRPPQRGHRQLSLPRFPSVSLQEAS
modifications: commercial recombinant protein, possible tag; Peptide of PRP4
[1]; 10 nM, mean ± standard error (n = 12 to 18)
  Rate of cell-death suppression (%): 66.2 ± 14.4 %
[1]; rat RGC, Test Example 4, 10 nM
  suppression of cell death from hypoxia (in words): significantly suppressed the cell death from hypoxia
